Data: US20060182722A1, “Methods and materials for isolating isogenic islet cells” (priority 2005, published 2006)
“And” between values parts separate entries of the source, which are not always exact repeats. Identical values can stand only once.

Legend:
T1D patients = test: Example 4: safety assessments; parameters: species or system human; conditions: in vivo
Description: Safety assessments. Recipients underwent clinical, laboratory, and diagnostic safety assessments. Daily during their transplant hospitalization and at each of their 23 posttransplant study visits, the severity and duration of any adverse events were monitored and recorded. Laboratory tests included hematology, chemistry, liver transaminases, lipids, standard creatinine clearance, and urinary albumin excretion. Adverse events were graded based on the National Cancer Institute's Common Toxicity Criteria, Version 2.0.

[1] = Example 3: immunosuppressant whole blood trough levels; type: in vivo, human; conditions: for Drug Exposure: whole blood trough levels, individual recipients #1-#8
Protocol: Maintenance immunosuppression was initiated with sirolimus (0.2 mg/kg starting on day −2, followed by 0.1 mg/kg daily; target whole blood trough levels 5 to 15 ng/mL, as tolerated), and reduced-dose tacrolimus (0.015 mg/kg twice daily, starting on day +1; target whole blood trough levels 3 to 6 ng/mL). At 1 month posttransplant, tacrolimus was gradually replaced with mycophenolate mofetil (MMF; 750 to 1000 mg, twice daily); tacrolimus was either discontinued or dosed to a target trough level of <3 ng/mL. If target levels of sirolimus could not be achieved or maintained, however, tacrolimus (target level, 3 to 6 ng/mL) was continued.
The 5 recipients received daily MMF doses of 1.5 to 2.0 g. They either (a) achieved and maintained sirolimus trough levels >9 ng/mL, with tacrolimus trough levels of 0 to <3 ng/mL, or (b) in the absence of target sirolimus trough levels, tacrolimus trough levels of 3 to 6 ng/mL. The 3 recipients who resumed exogenous insulin therapy had received ≧1.5 g/day of MMF but had subtherapeutic sirolimus trough levels (<9 ng/mL) in the absence of measurable tacrolimus trough levels (<3 ng/mL). Please see Table 5 for immunosuppression.

[2] = Example 4: sirolimus whole blood trough concentration; type: in vivo, human
Protocol: Immunosuppression. […] On days 0 through +9 posttransplant, they received a daily 4-mg dose. […] The doses were based on those previously used to treat kidney graft rejection (Woddle et al., Transplantation 1999; 68:608-616). Premedication was with acetaminophen, diphenhydramine, and pentoxifylline. Sirolimus (Rapamune, Wyeth-Ayerst) was initiated orally at a dose of 0.2 mg/kg on day −2, followed by 0.1 mg/kg daily; the dose then was titrated and adjusted to achieve a target whole blood trough level of 5 to 10 ng/mL. Mean trough concentration prior to transplant on day 0 was 6.1±1.7 ng/mL and on day +2 was 6.7±1.9 ng/mL. Reduced-dose tacrolimus (Prograf, Fujisawa) was administered orally to all islet recipients beginning on […] posttransplant at 0.015 mg/kg 2 times per day; the dose was then adjusted to achieve a target whole blood trough level of 3 to 6 ng/mL (Shapiro et al., New Engl. J. Med. 2000; 343:230-238).

[3] = system: type 1 diabetic recipients; test: Example 3: safety assessments; type: in vivo, human; conditions: of 8 recipients; resolved or improved with dose reduction
Protocol: Safety was assessed by monitoring the severity and duration of adverse events. Efficacy was assessed by studying the recipients' insulin requirements, C-peptide levels, oral and intravenous glucose tolerance results, intravenous arginine stimulation responses, and HbA1c levels. Safety Assessments. Recipients underwent clinical, laboratory, and diagnostic safety assessments daily during their transplant hospitalization and at each of their 19 posttransplant study visits. Portal pressure was monitored during the transplant procedure. On days +1 and +7, ultrasonographic examination was done of the right upper quadrant including Doppler examination of the portal venous system. The severity and duration of any adverse events were monitored and recorded. Laboratory tests assessed hematology, chemistry, liver transaminases, lipids, standard creatinine clearance, and urinary albumin excretion. Adverse events were graded per the National Cancer Institute's Common Toxicity Criteria, Version 2.0.

CD3 = target: T1, CD3 (Homo sapiens, UniProt P07766); test: Monitoring hOKT3γ1 (Ala-Ala): coating of the CD3 molecule on PBLs; type: in vivo; conditions: table: individual subjects #1-#6, text: mean
T1 construct: endogenous in cells; host or cells: peripheral blood lymphocytes (PBLs) of the treated patients
T1 sequence (P07766 23-207): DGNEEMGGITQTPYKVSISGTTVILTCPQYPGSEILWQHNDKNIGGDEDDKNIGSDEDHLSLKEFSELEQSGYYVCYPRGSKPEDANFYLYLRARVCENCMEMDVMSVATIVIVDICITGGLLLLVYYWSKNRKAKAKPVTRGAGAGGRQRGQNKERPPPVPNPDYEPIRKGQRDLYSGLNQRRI
T1 sequence (P09693 23-182 partner): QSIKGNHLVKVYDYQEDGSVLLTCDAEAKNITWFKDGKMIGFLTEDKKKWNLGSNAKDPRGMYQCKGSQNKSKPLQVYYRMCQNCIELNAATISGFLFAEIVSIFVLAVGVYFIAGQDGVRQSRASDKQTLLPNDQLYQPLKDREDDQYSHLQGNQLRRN
T1 sequence (P04234 22-171 partner): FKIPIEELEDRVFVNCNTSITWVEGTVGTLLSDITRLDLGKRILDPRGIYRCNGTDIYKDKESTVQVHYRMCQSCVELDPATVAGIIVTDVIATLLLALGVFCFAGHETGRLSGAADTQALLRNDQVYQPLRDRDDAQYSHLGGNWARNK
T1 sequence (P20963 22-164 partner): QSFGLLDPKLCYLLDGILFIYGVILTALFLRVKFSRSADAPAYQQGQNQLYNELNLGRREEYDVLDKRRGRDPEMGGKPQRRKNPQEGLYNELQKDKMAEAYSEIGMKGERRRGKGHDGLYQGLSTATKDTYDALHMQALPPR
Description: (§1) Monitoring hOKT3γ1 (Ala-Ala). Flow cytometry was used to enumerate CD2^+, CD4^+, CD8^+, CD25^+, and CD69^+ T cells. […] Anti-idiotype antibodies were identified by ELISA, by the use of plate-bound OKT3, or by flow cytometry, in order to measure the blockade of binding of OKT3 fluorescein isothiocyanate to CD3 (Chatenoud, Transplant Proc. 1993; 25:68-73).

[4] = Monitoring hOKT3γ1 (Ala-Ala): serum levels; type: in vivo, human; conditions: table: individual subjects #1-#6, text: mean; for Peak hOKT3γ1 (Ala-Ala) level achieved: serum
Description: as §1

[5] = system: serum cytokines (IL-10, TNF-α); test: Serum cytokines before and after hOKT3γ1 (Ala-Ala); type: in vivo, human
[6] = Anti-idiotype antibodies by ELISA; type: in vivo, human; conditions: all recipients treated
Description: as §1

[7] = system: autoreactive and alloreactive T cell responses; conditions: clinical; cited from earlier work
[8] = the 3 recipients who resumed exogenous insulin therapy

Compound: C[C@@H]1[C@H](O)[C@@H](C)/C=C/C=C/CC/C=C/C=C/C=C/C=C/C(O[C@H]2O[C@H](C)[C@@H](O)[C@H](N)[C@@H]2O)CC2O[C@](O)(CC(O)C(O)CCC(O)CC(O)CC(O)CC(=O)O[C@H]1C)CC(O)C2C(=O)O (stereo partly shown) [nystatin]
- Serious adverse event determined to be related to treatment (T1D patients): generalized rash

Compound: C=CC[C@@H]1/C=C(\C)C[C@H](C)C[C@H](OC)[C@H]2O[C@@](O)(C(=O)C(=O)N3CCCC[C@H]3C(=O)O[C@H](/C(C)=C/[C@@H]3CC[C@@H](O)[C@H](OC)C3)[C@H](C)[C@@H](O)CC1=O)[C@H](C)C[C@@H]2OC [Tacrolimus, tacrolimus]
- Trough levels [1, 8]: < 3 ng/mL
- Drug Exposure [1]: 0 ng/ml (2×) and 4-5 ng/ml and 4-6 ng/ml and <3 ng/ml and 3 ng/ml

Compound: CO[C@H]1C[C@@H]2CC[C@@H](C)[C@@](O)(O2)C(=O)C(=O)N2CCCC[C@H]2C(=O)O[C@H]([C@H](C)C[C@@H]2CC[C@@H](O)[C@H](OC)C2)CC(=O)[C@H](C)/C=C(\C)[C@@H](O)[C@@H](OC)C(=O)[C@H](C)C[C@H](C)/C=C/C=C/C=C/1C [Sirolimus, sirolimus]
- Trough levels ([1]; recipients with sustained insulin independence, case (a)): > 9 ng/mL
- Trough levels [1, 8]: < 9 ng/mL
- Drug Exposure [1]: 4-8 ng/ml and >9 ng/ml (3×) and 2-3 ng/ml and 7-9 ng/ml and 4-9 ng/ml and 6-8 ng/ml
- Mean trough concentration ([2]; day +2): 6.7 ± 1.9 ng/mL
- Mean trough concentration ([2]; prior to transplant on day 0): 6.1 ± 1.7 ng/mL

Compound: COc1c(C)c2c(c(O)c1C/C=C(\C)CCC(=O)OCCN1CCOCC1)C(=O)OC2 [MMF, mycophenolate mofetil]
- Recipients with transient diarrhea after beginning MMF therapy [3]: 6

Compound: hOKT3γ1 (Ala-Ala): humanized anti-CD3 antibody retaining the binding region of OKT3; human IgG1 Fc mutated to prevent binding to the Fc receptor
- Duration >80% CD3 coating (Total # of days) (CD3): 4.8 ± 2.6 days
- Time to 80% CD3 coating (# of days) (CD3): 7.3 ± 2.9 days
- Duration >80% CD3 coating (Total # of days) (CD3; listed as hOKT3γ1 (Ala—Ala)): 4 days (2×) and 3 days and 2 days and 8 days (2×)
- Time to 80% CD3 coating (# of days) (CD3; listed as hOKT3γ1 (Ala—Ala)): 9.5 days and 8.5 days and 11.5 days and 4.5 days (2×) and 5.5 days
- Peak hOKT3γ1 (Ala-Ala) level achieved [4]: 1196 ± 821 ng/mL
- Peak hOKT3γ1 (Ala-Ala) level achieved ([4]; listed as hOKT3γ1 (Ala—Ala)): 872 ng/mL and 450 ng/mL and 1028 ng/mL and 736 ng/mL and 2761 ng/mL and 1330 ng/mL
- Days to negative hOKT3γ1 (Ala-Ala) level after last dose [4]: 61 ± 32 days
- Days to negative hOKT3γ1 (Ala-Ala) level after last dose ([4]; listed as hOKT3γ1 (Ala—Ala)): 91 days and 111 days and 47 days and 50 days and 33 days and 34 days
- Mean peak serum TNF-α after administration ([5]; 29.9±31.7 pg/mL prior to administration): 267.6 ± 120.3 pg/mL
- Serum IL-10 levels after administration compared with pre-dosing levels ([5]; all participants): increased in all participants
- Anti-idiotype antibodies [6]: Absence of anti-idiotype antibodies
- Kidney graft rejection [7]: reversed kidney graft rejection
- Side effects compared with the parental OKT3 antibody [7]: markedly fewer side effects
